Data published in publication PMC10279527, “Structural basis of metabolite transport by the chloroplast outer envelope channel OEP21” (Nature Structural & Molecular Biology, 2023).
“And” between values parts separate entries of the source, which are not always exact repeats. Equal values may be shown once. Read-outs that look alike come from different tables or passages of the source. Values belong to the compound of their own block, whether it stands above or below them.

Columns and labels:
[1] = target: T1, OEP21 (Pisum sativum, UniProt Q9SM57); assay: CD-detected thermal melting of OEP21 in presence of metabolites; type: binding, garden pea; design: made in house; conditions: for Melting point: ED Fig. 4a, OEP21 with 0.5 mM metabolite, CD at 215 nm, Apo 58.5; for raw CD / rel CD: 500 uM
[2] = target: T1, OEP21; assay: Isothermal titration calorimetry (ITC) of OEP21 with metabolites; type: binding, garden pea; design: made in house; conditions: for binding affinity for OEP21 (in words): ITC or FP; for fold increase in Kd: individual determination KD1; for fold increase in Kd / fold increase in Kd, mean values: relative to ATP pH7
[3] = target: T2, OEP21 wt (Pisum sativum, UniProt Q9SM57); assay: Fluorescence polarization (FP) binding of MANT-ATP (or MANT-GMPPNP) to OEP21-WT, also at varied NaCl and MgCl2; design: species or system garden pea; conditions: FP
T2 construct: made in house
Procedure: (§1) FP assays were performed on a spectrofluorometer FP-8300 (Jasco) equipped with a water bath cooling system MCM-100 (Jasco). […] A buffer containing no EDTA was used when MgCl2 was present. […] KD values were derived by fitting the data to a one-site binding model. […] All FP experiments were performed as triplicates.

[4] = tested on: OEP21 variants (single point mutations, ΔL5); assay: Fluorescence polarization binding of MANT-ATP to OEP21 variants;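 note: KD obtained by fitting fluorescence polarization data to a one-site binding model, each experiment run in triplicate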; design: species or system garden pea; conditions: FP with MANT-ATP, Fig. 3e; 14 point variants and ΔL5
[5] = ITC of ATP, GAP or phosphate with magnesium; type: binding; conditions: 10 mM HEPES pH7.0, 20 mM NaCl, read-out: KD for Mg^2+
Procedure: ITC experiments were performed with a MicroCal PEAQ-ITC instrument (Malvern Panalytical) at 25 °C in 10 mM HEPES pH 7.0, 20 mM NaCl, 0.5 mM EDTA, 1 mM DTT, 50 mM LDAO. […] Curve fitting and data analysis were done with the Malvern PEAQ-ITC software.
(a) (left) 2D-[^15N,^1H]-TROSY NMR spectra of 400 µM ^2H,^15N-labeled OmpX in LDAO micelles in 20 mM sodium phosphate, pH6.0, 50 mM NaCl, 0.5 mM EDTA and the indicated concentrations of D-GAP at 30 °C and 1.2 GHz magnetic field. (right) 2D-projections along the ^1H dimension of the 2D-spectra shown on (left). […] (right) Relative NMR peak intensities derived from the data in (left) and (middle). Buffer: 10 mM Na-phosphate pH7.0, 20 mM NaCl, 7% (v/v) D2O. […] (right) 150 mM MgCl2 was titrated into 15 mM potassium phosphate (Pi). Buffer conditions for all experiments were: 10 mM HEPES pH7.0, 20 mM NaCl.

[6] = target: T2, OEP21 wt; assay: SEC metabolite translocation assay with OEP21 WT proteoliposomes;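 for all read-outs here: control is liposomes reconstituted without protein, prepared alongside. Molecule content inside liposomes measured after Triton X-100 disruption. PD10 SEC runs done with or without ATP and/or MgCl2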; type: biochemical, garden pea; conditions: for passage through the OEP21 channel (in words): proteoliposomes, SEC, deadtime ~4 min; for Relative content (% of mean Control): Fig. 4f, WT proteoliposomes, molecules of increasing molecular weight
[7] = target: T1, OEP21; assay: Trypsin cleavage of recombinant OEP21 in liposomes; design: made in house; species or system garden pea; conditions: 10 µM OEP21 in liposomes; 5 mM metabolite
Procedure: Sample aliquots were quenched by addition of 1 mM PMSF at the indicated time points and were analyzed by SDS–PAGE.

[8] = target: T1, OEP21; assay: Amide hydrogen exchange NMR (CLEANEX) of OEP21 L5; design: made in house; species or system garden pea; conditions: 2 mM ATP or 5 mM GAP; 303 K, pH 6.0
[9] = target: T2, OEP21 wt; assay: NMR titrations (2D-[15N,1H]-TROSY) of OEP21 with metabolites; type: binding, garden pea
[10] = target: T2, OEP21 wt; assay: FP competition with preformed MANT-ATP/OEP21-WT complex; type: binding, garden pea; conditions: read-out: IC50 (dissociation of MANT-ATP); OEP21-WT; 1 µM MANT-ATP, 1 µM protein
Procedure: as §1

- Melting point [1]: 58.78 ｡C
Compound: O=C(O)[C@H](O)COP(=O)(O)O [3PGA]

- Melting point [1]: 59.2 ｡C
- binding affinity for OEP21 (in words) ([2]; Fig. 3c): markedly reduced
- fold increase in Kd [2]: 10.8
- fold increase in Kd, mean values [2]: 10.8
Compound: Nc1ncnc2c1ncn2[C@@H]1O[C@H](COP(=O)(O)OP(=O)(O)O)[C@@H](O)[C@H]1O [ADP]

- Melting point [1]: 59.12 ｡C
- binding affinity for OEP21 (in words) ([2]; Fig. 3c): no binding could be detected
- Fold increase in KD ([2]; Fig. 3c, n.b. = no binding could be detected by ITC): n.b.
- fold increase in Kd, mean values [2]: 0
Compound: Nc1ncnc2c1ncn2[C@@H]1O[C@H](COP(=O)(O)O)[C@@H](O)[C@H]1O [AMP]

Compound: Nc1ncnc2c1ncn2C1OC(COP(=O)(O)OP(=O)(O)OP(=O)(O)O)C(O)C1O (centres unmarked) [ATP]
- decrease in affinity ([3]; 50 mM MgCl2 versus 0): ~50 fold
- drop in binding affinity ([3]; 2 M NaCl versus 0): ~120 fold
- deviation of KD of OEP21 variants from the wild-type value [4]: ≤ 50%
- Kd [5]: 0.05 mM and 0.054 mM
- passage through the OEP21 channel (in words) [6]: passed through the channel
- raw CD ([1]; 21 °C): -26.3487
- raw CD ([1]; 58 °C): -23.5155
- raw CD ([1]; 63 °C): -19.1017
- raw CD ([1]; 66 °C): -5.813
- rel CD ([1]; 66 °C): 0.1482
- rel CD ([1]; 68 °C): 0.08235
- raw CD ([1]; 69 °C): -3.142
- raw CD ([1]; 70 °C): -4.096
- raw CD ([1]; 71 °C): -2.84
- raw CD ([1]; 71.5 °C): -3.658
- raw CD ([1]; 74 °C): -2.072
- rel CD ([1]; 76 °C): 0.01626
- raw CD ([1]; 77 °C): -2.742
- rel CD ([1]; 77 °C): 0.01867
- raw CD ([1]; 79 °C): -1.936
- raw CD ([1]; 79.5 °C): -2.866
- raw CD ([1]; 80 °C): -3
- raw CD ([1]; 82 °C): -1.776
- rel CD ([1]; 82 °C): -0.02212
- raw CD ([1]; 83.5 °C): -1.529
- raw CD ([1]; 84 °C): -3.442
- rel CD ([1]; 87 °C): -0.01175
- rel CD ([1]; 87.5 °C): 0.006103
- rel CD ([1]; 88 °C): 0.001624
- raw CD ([1]; 88.5 °C): -3.139
- rel CD ([1]; 90 °C): -0.0159
- rel CD ([1]; 90.5 °C): -0.01305
- rel CD ([1]; 92 °C): 0.001685
- rel CD ([1]; 93 °C): -0.01165
- raw CD ([1]; 95 °C): -2.644
- rel CD ([1]; 97 °C): -0.003556
- raw CD ([1]; 98 °C): -2.053
- raw CD ([1]; 100 °C): -2.629
- Melting point [1]: 63.08 ｡C
- binding stoichiometry n ([2]; ITC, Fig. 3a): 1.14 ± 0.16
- effect on trypsin digestion of L5 (in words) [7]: slightly protected L5 from proteolytic digestion
- amide hydrogen exchange rates in L5 in the complex (in words) [8]: reduced

Compound: O=S1(=O)OC(c2cc(Br)c(O)c(Br)c2)(c2cc(Br)c(O)c(Br)c2)c2ccccc21 [Bromophenol Blue, reference compound]
- Relative content (% of mean Control) ([6]; Mean): 44.3038 % of mean Control
- Relative content (% of mean Control) ([6]; single replicates): 45.5696 % of mean Control and 43.6709 % of mean Control (2×)
- passage through the OEP21 channel (in words) [6]: lower translocation efficiency

- Melting point [1]: 63.71 ｡C
- fold increase in Kd [2]: 1.35
- fold increase in Kd, mean values [2]: 1.35
Compound: Nc1ccn([C@@H]2O[C@H](COP(=O)(O)OP(=O)(O)OP(=O)(O)O)[C@@H](O)[C@H]2O)c(=O)n1 [CTP]

- Relative content (% of mean Control) ([6]; Mean): 46.1734 % of mean Control
Compound: Cc1cc2nc3c(=O)[nH]c(=O)nc-3n(C[C@H](O)[C@H](O)[C@H](O)COP(=O)(O)OP(=O)(O)OC[C@H]3O[C@@H](n4cnc5c(N)ncnc54)[C@H](O)[C@@H]3O)c2cc1C [FAD]
- Relative content (% of mean Control) ([6]; single replicates): 47.6939 % of mean Control and 45.5112 % of mean Control and 45.315 % of mean Control

- Melting point [1]: 66.48 ｡C
- fold increase in Kd [2]: 0.59
- fold increase in Kd, mean values [2]: 0.59
Compound: Nc1nc2c(ncn2[C@@H]2O[C@H](COP(=O)(O)OP(=O)(O)OP(=O)(O)O)[C@@H](O)[C@H]2O)c(=O)[nH]1 [GTP]

- Relative content (% of mean Control) ([6]; Mean): 33.6575 % of mean Control
- Melting point [1]: 58.83 ｡C
Compound: NC(=O)C1=CN([C@@H]2O[C@H](COP(=O)(O)OP(=O)(O)OC[C@H]3O[C@@H](n4cnc5c(N)ncnc54)[C@H](O)[C@@H]3O)[C@@H](O)[C@H]2O)C=CC1 [NADH]
- Relative content (% of mean Control) ([6]; single replicates): 33.3345 % of mean Control and 33.6928 % of mean Control and 33.9453 % of mean Control

- Relative content (% of mean Control) ([6]; Mean): 30.937 % of mean Control
- Melting point [1]: 60.17 ｡C
Compound: NC(=O)C1=CN([C@@H]2O[C@H](COP(=O)(O)OP(=O)(O)OC[C@H]3O[C@@H](n4cnc5c(N)ncnc54)[C@H](OP(=O)(O)O)[C@@H]3O)[C@@H](O)[C@H]2O)C=CC1 [NADPH]
- Relative content (% of mean Control) ([6]; single replicates): 31.31 % of mean Control and 32.4982 % of mean Control and 29.0027 % of mean Control

- Melting point [1]: 58.37 ｡C
Compound: C=C(OP(=O)(O)O)C(=O)O [PEP]

- Kd ([9]; individual determinations KD1-KD12, read-out: Kd): 8.73 mM and 3.66 mM and 15 mM and 9.02 mM and 8.71 mM and 10.4 mM and 5.02 mM and 3.5 mM and 11 mM and 15.9 mM and 20.7 mM and 4.68 mM
- Kd ([9]; mean, read-out: Kd, mean values): 9.7 mM
- IC50 [10]: ~10 mM
- Kd ([5]; listed as Pi): 9 ± 1 mM
- Kd [5]: ~9 mM
- Relative content (% of mean Control) ([6]; Mean): 13.1637 % of mean Control
Compound: O=P(O)(O)O [Phosphate]
- Relative content (% of mean Control) ([6]; single replicates): 11.8165 % of mean Control and 12.9577 % of mean Control and 14.7171 % of mean Control

- Melting point [1]: 63.58 ｡C
- fold increase in Kd [2]: 2.55
- fold increase in Kd, mean values [2]: 2.55
Compound: O=c1ccn([C@@H]2O[C@H](COP(=O)(O)OP(=O)(O)OP(=O)(O)O)[C@@H](O)[C@H]2O)c(=O)[nH]1 [UTP]

- Relative content (% of mean Control) ([6]; Mean): 99.2057 % of mean Control
- passage through the OEP21 channel (in words) [6]: cannot pass
Compound: Vitamin B12
- Relative content (% of mean Control) ([6]; single replicates): 105.56 % of mean Control and 96.0286 % of mean Control (2×)

- passage through the OEP21 channel (in words) [6]: cannot pass
Compound: lysozyme: the ~14-kDa protein lysozyme [reference compound]
